According to ChEMBL document CHEMBL3885861, “Open TG-GATES”:

Organism: Rattus norvegicus
Assay: Open TG-GATES - Regimen: Daily Repeat
Assay type: toxicity, organism-based, Sprague-Dawley
Design: regimen Daily Repeat, gender Male, age 6 weeks
Details: in vivo, po, 0 mg/kg, route gavage, dose level Control; for APTT / Bas / Eos / Fbg / Hb / Ht / Lym / MCH / MCHC / MCV / Mono / Neu / PT / Plat / RBC / Ret / WBC: tissue Blood
[1] = 72 h, tissue Kidney, time 3 day
[2] = 72 h, tissue Plasma, time 3 day

For `CC1=C(/C=C/C(C)=C/C=C/C(C)=C/CO)C(C)(C)CCC1` [RETINOL], which TERMINAL_BW (72 h, time 3 day) is on record?
Its TERMINAL_BW is 232.6 g.

What about the APTT (72 h, time 3 day) of the same molecule?
Its APTT is 21.2 s.

What about the Bas (72 h, time 3 day) of the same molecule?
Its Bas is 0%.

And the Eos (72 h, time 3 day)?
The Eos was 0.8%.

And the Fbg (72 h, time 3 day)?
Its Fbg is 302.6 mg/dL.

What about the Hb (72 h, time 3 day) of the same molecule?
Its Hb is 13.6 g/dL.

What about the Ht (72 h, time 3 day) of the same molecule?
The Ht was 39.5%.

And the Lym (72 h, time 3 day)?
The Lym was 81.8%.

What about the MCH (72 h, time 3 day) of the same molecule?
Its MCH is 21.4 pg.

What about the MCHC (72 h, time 3 day) of the same molecule?
Its MCHC is 34.4%.

And the MCV (72 h, time 3 day)?
The MCV was 62 fL.

What about the Mono (72 h, time 3 day) of the same molecule?
Its Mono is 2.8%.

What about the Neu (72 h, time 3 day) of the same molecule?
The Neu was 14%.

And the PT (72 h, time 3 day)?
Its PT is 16.6 s.

And the Plat (72 h, time 3 day)?
The Plat was 116.8 x10_4/uL.

And the RBC (72 h, time 3 day)?
The RBC was 637 x10_4/ul.

And the Ret (72 h, time 3 day)?
Its Ret is 6.6%.

And the WBC (72 h, time 3 day)?
Its WBC is 108.7 x10_2/uL.

What about the KIDNEY_L [1] of the same molecule?
The KIDNEY_L was 1.1 g.

And the KIDNEY_R [1]?
The KIDNEY_R was 1.1 g.

What about the KIDNEY_TOTAL [1] of the same molecule?
The KIDNEY_TOTAL was 2.1 g.

What about the LIVER (72 h, tissue Liver, time 3 day) of the same molecule?
The LIVER was 11 g.

And the A/G [2]?
Its A/G is 1.2.

And the ALP [2]?
The ALP was 1642.8 IU/L.

And the ALT [2]?
Its ALT is 49.4 IU/L.

And the AST [2]?
The AST was 76.2 IU/L.

And the BUN [2]?
The BUN was 18.6 mg/dL.

What about the CRE [2] of the same molecule?
The CRE was 0.1 mg/dL.

And the Ca [2]?
Its Ca is 10.9 mg/dL.

And the Cl [2]?
Its Cl is 106.8 meq/L.

And the DBIL [2]?
Its DBIL is 0 mg/dL.

What about the GLC [2] of the same molecule?
Its GLC is 199.8 mg/dL.

And the IP [2]?
The IP was 6.8 mg/dL.

What about the K [2] of the same molecule?
The K was 4.6 meq/L.

And the LDH [2]?
The LDH was 251.8 IU/L.

And the Na [2]?
Its Na is 141.2 meq/L.

What about the PL [2] of the same molecule?
The PL was 145.4 mg/dL.

And the RALB [2]?
The RALB was 3 g/dL.

And the TBIL [2]?
Its TBIL is 0.012 mg/dL.

And the TC [2]?
The TC was 76.2 mg/dL.

What about the TG [2] of the same molecule?
The TG was 94.8 mg/dL.

What about the TP [2] of the same molecule?
The TP was 5.5 g/dL.

What about the gamma-GTP [2] of the same molecule?
The gamma-GTP was 1 IU/L.

And the TERMINAL_BW ([…], time 7 day)?
Its TERMINAL_BW is 257.6 g.

And the TERMINAL_BW ([…], time 14 day)?
Its TERMINAL_BW is 301.9 g.

What about the TERMINAL_BW ([…], time 28 day) of the same molecule?
The TERMINAL_BW was 374.5 g.

What about the APTT ([…], time 7 day) of the same molecule?
Its APTT is 20.5 s.

What about the Bas ([…], time 7 day) of the same molecule?
Its Bas is 0%.

And the Eos ([…], time 7 day)?
The Eos was 0.8%.

And the Fbg ([…], time 7 day)?
The Fbg was 304.8 mg/dL.

And the Hb ([…], time 7 day)?
The Hb was 13.6 g/dL.

And the Ht ([…], time 7 day)?
Its Ht is 38.8%.

And the Lym ([…], time 7 day)?
Its Lym is 79.6%.

And the MCH ([…], time 7 day)?
Its MCH is 20.9 pg.

And the MCHC ([…], time 7 day)?
The MCHC was 35.1%.

And the MCV ([…], time 7 day)?
The MCV was 59.7 fL.

And the Mono ([…], time 7 day)?
The Mono was 2.2%.

What about the Neu ([…], time 7 day) of the same molecule?
Its Neu is 16.4%.

What about the PT ([…], time 7 day) of the same molecule?
The PT was 16.3 s.

And the Plat ([…], time 7 day)?
Its Plat is 117.2 x10_4/uL.

What about the RBC ([…], time 7 day) of the same molecule?
Its RBC is 650.4 x10_4/ul.

What about the Ret ([…], time 7 day) of the same molecule?
The Ret was 5.1%.

And the WBC ([…], time 7 day)?
Its WBC is 114.1 x10_2/uL.

And the APTT ([…], time 14 day)?
Its APTT is 21.4 s.

What about the Bas ([…], time 14 day) of the same molecule?
Its Bas is 0%.

And the Eos ([…], time 14 day)?
Its Eos is 0.4%.

And the Fbg ([…], time 14 day)?
The Fbg was 312 mg/dL.

What about the Hb ([…], time 14 day) of the same molecule?
Its Hb is 13.7 g/dL.

And the Ht ([…], time 14 day)?
The Ht was 38.7%.

What about the Lym ([…], time 14 day) of the same molecule?
The Lym was 78%.

And the MCH ([…], time 14 day)?
The MCH was 20.9 pg.

And the MCHC ([…], time 14 day)?
The MCHC was 35.4%.

What about the MCV ([…], time 14 day) of the same molecule?
Its MCV is 59.2 fL.

And the Mono ([…], time 14 day)?
Its Mono is 2%.

What about the Neu ([…], time 14 day) of the same molecule?
The Neu was 18.2%.

And the PT ([…], time 14 day)?
Its PT is 16.1 s.

What about the Plat ([…], time 14 day) of the same molecule?
The Plat was 122.4 x10_4/uL.

What about the RBC ([…], time 14 day) of the same molecule?
The RBC was 654 x10_4/ul.

What about the Ret ([…], time 14 day) of the same molecule?
Its Ret is 5.2%.

And the WBC ([…], time 14 day)?
The WBC was 121.8 x10_2/uL.

What about the APTT ([…], time 28 day) of the same molecule?
Its APTT is 24.2 s.

What about the Bas ([…], time 28 day) of the same molecule?
Its Bas is 0%.

And the Eos ([…], time 28 day)?
Its Eos is 1%.

And the Fbg ([…], time 28 day)?
Its Fbg is 354.8 mg/dL.

And the Hb ([…], time 28 day)?
Its Hb is 15.1 g/dL.

And the Ht ([…], time 28 day)?
The Ht was 42.6%.
